# According to patent US8236523B2, “Camp reporters and high throughput assays” (The Johns Hopkins University, priority 2004, dated 2012):
# “Also recorded” adds a separate entry of the source.
# B1: T316-A501: ECFP/citrine reporter with Epac2 amino acids 316-501 of SEQ ID NO:20 (protein, listed as Mus musculus)
# chain: MLLLSQMGPDAHMRMILRKPPGQRTVDDLEIIYDELLHIKALSHLSTTVKRELAGVLIFESHAKGGTVLFNQGEEGTSWYIILKGSVNVVIYGKGVVCTLHEGDDFGKLALVNDAPRAASIVLREDNCHFLRVDKEDFNRILRDVEANTVRLKEHDQDVLVLEKVPAGNRAANQGNSQPQQKYTVM
# modifications: fused between ECFP and citrine
# B2: P350-A501: ECFP and citrine fused with Epac2 domain, amino acids 350-501 of SEQ ID NO:20 (protein, listed as Mus musculus)
# chain: ELLHIKALSHLSTTVKRELAGVLIFESHAKGGTVLFNQGEEGTSWYIILKGSVNVVIYGKGVVCTLHEGDDFGKLALVNDAPRAASIVLREDNCHFLRVDKEDFNRILRDVEANTVRLKEHDQDVLVLEKVPAGNRAANQGNSQPQQKYTVM
# modifications: fused between ECFP and citrine
# Experiments:
# Type in all cases: cell-based
# [1] = test system: cAMP; assay: High throughput 96-well plate assay using ICUE2 stable HEK293 cells; conditions: 1 μM ISO, 100 μM IBMX, 50 μM FSK
# Method: HEK293 cells which stably express ICUE2 (“ICUE2 stable HEK293 cells”) were grown to confluency in 10 cm dishes in DMEM, 10% FBS, 1% penicillin/streptomycin, and 250 μg/ml G418. HEK-293 cells were transfected with cDNA encoding ICUE2 using calcium phosphate at 40% confluency and allowed to grow for 40 hours. Cells were removed from the dish using 0.05% trypsin, spun down, and replaced with fresh media. ICUE2 stable HEK293 cells were counted on a hemocytometer using trypan blue stain. One hundred fifty thousand (150,000) cells were plated per well on a 96-well clear bottom assay plate in a total of 0.2 ml of media per […] and allowed to double once. Media was removed, cells were washed with Hanks buffered salt solution (HBSS) and then covered with 0.05 ml of HBSS per well. In a separate sterile plate, appropriate drugs were added to each well containing HBSS for a total volume of 0.05 ml. […] A baseline was established in three cycles, each consisting of a full plate reading of yellow intensity, followed by a reading of cyan intensity. Cells were then treated with isoproterenol (ISO; […] Readings were taken in six or twenty additional cycles. […] Baseline FRET ratios were calculated as the average ratio of yellow/cyan for each well before the addition of drug. FRET change was calculated as the percent increase of FRET ratio over baseline for each well during a given cycle. The FRET changes of all wells having undergone the same drug treatment were then averaged within each cycle, and that cycle was correlated with time.
# [2] = test system: cAMP; assay: 96-well live cell plate reading of HEK293 cells expressing ICUE3; conditions: for effect on ISO-stimulated response of ICUE3: PRO 10 μM
# Method: Plate reading used a 420DF20 excitation filter and two emission filters (470DF40 for cyan and 535DF25 for yellow). A baseline was established in three cycles, each consisting of a full plate reading of yellow intensity, followed by a reading of cyan intensity. Cells were then treated with isoproterenol (ISO; Aldrich), forskolin (Calbiochem), H89, propranolol, and 3-isobutyl-1-methylxanthine (IBMX) as indicated. Readings were taken in six or twenty additional cycles. Each cycle lasted 60 to 145 sec. Baseline FRET ratios were calculated as the average ratio of yellow/cyan for each well before the addition of drug. FRET change was calculated as the percent increase of FRET ratio over baseline for each well during a given cycle. The FRET changes of all wells having undergone the same drug treatment were then averaged within each cycle, and that cycle was correlated with time.
# Live cell plate reading. HEK293 cells were transfected with cDNA encoding ICUE reporters using calcium phosphate at 40% confluency and allowed to grow for 40 hours. Cells were then trypsinized and plated in a Costar 3603 96-well assay plate (Coming) at a density of 150,000 cells per well. After incubation for another 24 hours, cells were washed once with HBSS and left in 150 μl HBSS at 20-25° C. Fluorescence reading was taken on a FLUOstar OPTIMA fluorescence microplate reader (BMG Labtechnologies Inc.) using a 420DF20 excitation filter and two emission filters (470DF40 for cyan and […] for yellow). A baseline was established in three cycles, each consisting of a full plate reading of yellow intensity, followed by a reading of cyan intensity. Each cycle lasted between 64 and 145 seconds. Readings were taken in additional cycles. FRET change was calculated as the percent increase of emission ratios (cyan-to-yellow) over baseline for each well during a given cycle. To assess the efficacy of the assay, several statistical parameters were calculated, including Z factor, coefficient of variation, and signal-to-noise ratio (Zhang et al., J. Biomol. Screen. 4, 67-73, 1999).
# [3] = test system: cAMP; assay: Dual-emission ratio (FRET) imaging of Epac-based cAMP reporters (ICUE1 and targeted fusions) in HEK-293 cells; conditions: for increase in the ratio of cyan to yellow emissions (FRET response): HEK293 cells expressing ICUE1, 10 μM ISO, 50 μM FSK, 10 μM PGE1, 300 μM 8-pCPT-2′-O-Me-cAMP, average ± S.E.M; for increase in emission ratio of cyan to yellow upon cAMP elevations: ECFP/citrine reporters with truncated Epac2, HEK-293 cells
# Method: Cell Culture. […] Cells were then transfected with FuGENE-6 transfection reagent (Roche) or calcium phosphate and allowed to grow for 12-24 hours before imaging.
# Imaging. Cells were washed twice with Hanks' balanced salt solution buffer after 12- to 24-h incubation at 37° C. culture medium. Cells were maintained in buffer in the dark at room temperature with addition of isoproterenol (Aldrich), forskolin (Calbiochem), Prostaglandin E1 (PGE1) (Sigma), and 8-(4-chloro-phenylthio)-2′-O-methyl adenosine 3′,5′-monophosphate (8-pCPT-2′-O-Me-cAMP) (Axxora Biolog) as indicated. Cells were also treated with P-(4,5-dimethoxy-2-nitrobenzyl) adenosine 3′,5′-monophosphate (DMNB-cAMP) (Molecular Probe).
# Cells were imaged on a Zeiss Axiovert 200M microscope with a cooled charge-coupled device camera MicroMAX BFT512 (Roper Scientific) controlled by METAFLUOR 6.2 software (Universal Imaging). Dual-emission ratio imaging used a 420DF20 excitation filter, a 450DRLP dichroic mirror and two emission filters (475DF40 for ECFP, 535DF25 for citrine) alternated by a filter changer Lambda 10-2 (Sutter Instruments). Exposure time was 100-500 ms and images were taken every 8-30 s. Fluorescent images were background-corrected by subtracting autofluorescence intensities of untransfected cells (or background with no cells) from the emission intensities of fluorescent cells expressing reporters. The ratios of cyan to yellow emissions were then calculated at different time points and normalized by dividing all ratios by the emission ratio just prior to stimulation therefore setting the basal emission ratio to 1.
# [4] = 50 μM FSK, 10 μM PRO, 10 μM H89
# [5] = ICUE1, 10 μM propranolol added after isoproterenol response reached plateau
# [6] = plasma membrane-targeted ICUE1, 10 μM PGE1
molecule,measurement,setting,value
"CC(C)Cn1c(=O)n(C)c(=O)c2[nH]cnc21 [IBMX, 3-isobutyl-1-methylxanthine]",character of ICUE2 response (in words),[1],increased the amplitude and sustained the responses
same,effect on ISO-stimulated response of ICUE3,"[2]; 1 μM ISO, 100 μM IBMX",sustained the response and increased its amplitude
O=S(=O)(NCCNC/C=C/c1ccc(Br)cc1)c1cccc2cnccc12 [H89],effect on FSK-stimulated response of ICUE3,[2]; [4],did not diminish the response of ICUE3; also recorded: appeared to increase the response amplitude
CC(C)NCC(O)COc1cccc2ccccc12 (stereo not drawn) [propranolol],"Average percent FRET response ± standard deviation, 0 sec.","[2]; 0 sec., HEK293 cells expressing ICUE3, 1 μM ISO, 50 μM FSK, 10 μM PRO, 100 μM IBMX, 10 μM H89",7.61% ± 3.19%
same,effect on ISO-stimulated response of ICUE3,"[2]; 1 μM ISO, 100 μM IBMX",inhibited
same,effect on FSK-stimulated response of ICUE3,[2]; [4],had no effect
same,"Average percent FRET response ± standard deviation, 145 sec.","[2]; 145 sec., HEK293 cells expressing ICUE3, 1 μM ISO, 50 μM FSK, 10 μM PRO, 100 μM IBMX, 10 μM H89",8.1% ± 1.38%
same,"Average percent FRET response ± standard deviation, 290 sec.","[2]; 290 sec., HEK293 cells expressing ICUE3, 1 μM ISO, 50 μM FSK, 10 μM PRO, 100 μM IBMX, 10 μM H89",6.54% ± 1.37%
same,"Average percent FRET response ± standard deviation, 435 sec.","[2]; 435 sec., HEK293 cells expressing ICUE3, 1 μM ISO, 50 μM FSK, 10 μM PRO, 100 μM IBMX, 10 μM H89",3.73% ± 0.911%
same,"Average percent FRET response ± standard deviation, 580 sec.","[2]; 580 sec., HEK293 cells expressing ICUE3, 1 μM ISO, 50 μM FSK, 10 μM PRO, 100 μM IBMX, 10 μM H89",2.57% ± 1.33%
same,"Average percent FRET response ± standard deviation, 725 sec.","[2]; 725 sec., HEK293 cells expressing ICUE3, 1 μM ISO, 50 μM FSK, 10 μM PRO, 100 μM IBMX, 10 μM H89",1.83% ± 1.06%
same,effect on isoproterenol-stimulated FRET response,"[3]; ICUE1, HEK293 cells, propranolol present",prevented the isoproterenol-stimulated response
same,time of full recovery of emission ratio,[3]; [5],6 to 8 min
same,time of initial decrease in emission ratio of cyan to yellow,[3]; [5],2 to 3 min
"CCCCC[C@H](O)/C=C/[C@H]1[C@H](O)CC(=O)[C@@H]1CCCCCCC(=O)O [PGE1, Prostaglandin E1]",increase in the ratio of cyan to yellow emissions (FRET response),[3],13.3%±0.9
same,FRET response in the nucleus,"[3]; NLS-ICUE1, 10 μM PGE1",3.4%±0.4
same,emission ratio increase at the plasma membrane,[3]; [6],12.6%±0.9
same,time of emission ratio increase at the plasma membrane,[3]; [6],2 to 3 min
"COc1cc(COP2(=O)OCC3OC(n4cnc5c(N)ncnc54)C(O)C3O2)c([N+](=O)[O-])cc1OC (stereo not drawn) [DMNB-cAMP, P-(4,5-dimethoxy-2-nitrobenzyl) adenosine 3′,5′-monophosphate]",increase of emission ratio after UV uncaging,"[3]; ICUE1, 100 μM DMNB-cAMP for 3 minutes, UV flash of 5 seconds",4.7%±0.7
same,time of emission ratio increase after UV uncaging,"[3]; ICUE1, 100 μM DMNB-cAMP, UV flash of 5 seconds",15 to 30 s
"CO[C@@H]1[C@@H]2OP(=O)(O)OC[C@H]2O[C@H]1n1c(Sc2ccc(Cl)cc2)nc2c(N)ncnc21 [8-pCPT-2′-O-Me-cAMP, 8-(4-chloro-phenylthio)-2′-O-methyl adenosine 3′,5′-monophosphate]",increase in the ratio of cyan to yellow emissions (FRET response),[3],12.8%±0.9
same,time to produce a half-maximal increase in emission ratios (t1/2),"[3]; ICUE1, 300 μM",10 to 15 min
B1,increase in emission ratio of cyan to yellow upon cAMP elevations,[3],5%
B2,increase in emission ratio of cyan to yellow upon cAMP elevations,[3],did not show a cAMP-dependent FRET change
